Values quoted from earlier work as cited in US8585707B2, “Continuous low irradiance photodynamic therapy method” (priority 2006, dated 2013).

Settings: after intravenous administration, attributed to extended half-life

time the level of drug in the tissue remains stable: over 36 hours
Substance: Photofrin
